Test results taken from ChEMBL document CHEMBL1201862, “PubChem BioAssay data set” (2004).
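Compound exposure: 48 hours, 5 concentrations, 96-well plates. GI50 is the concentration that inhibits growth by half.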 Active and inactive are the calls of the source. Rule as the data show it: active = GI50 up to about 1.1 µM and inactive = higher.

Columns and labels:
Experiment in all cases: DTP human tumour cell line panel, 48 h
RPMI-8226 = system: RPMI-8226
DU-145 = system: DU-145
SK-MEL-5 = system: SK-MEL-5
MDA-MB-231 = system: MDA-MB-231
TK-10 = system: TK-10
UACC-62 = system: UACC-62
HCC 2998 = system: HCC 2998
786-0 = system: 786-0
OVCAR-8 = system: OVCAR-8
COLO 205 = system: COLO 205
OVCAR-4 = system: OVCAR-4
A498 = system: A498
MOLT-4 = system: MOLT-4
RXF 393 = system: RXF 393
SNB-19 = system: SNB-19
EKVX = system: EKVX
OVCAR-3 = system: OVCAR-3
SF-295 = system: SF-295
Hs-578T = system: Hs-578T
NCI-H226 = system: NCI-H226

Row | SMILES | GI50 (RPMI-8226) | GI50 (DU-145) | GI50 (SK-MEL-5) | GI50 (MDA-MB-231) | GI50 (TK-10) | GI50 (UACC-62) | GI50 (HCC 2998) | GI50 (786-0) | GI50 (OVCAR-8) | GI50 (COLO 205) | GI50 (OVCAR-4) | GI50 (A498) | GI50 (MOLT-4) | GI50 (RXF 393) | GI50 (SNB-19) | GI50 (EKVX) | GI50 (OVCAR-3) | GI50 (SF-295) | GI50 (Hs-578T) | GI50 (NCI-H226)
1 | CCCNc1ncnc2[nH]ncc12 | > 100 µM (inactive) | > 100 µM (inactive) | > 100 µM (inactive) | > 100 µM (inactive) | > 100 µM (inactive) | > 100 µM (inactive) | > 100 µM (inactive) | > 100 µM (inactive) | > 100 µM (inactive) | > 100 µM (inactive) | > 100 µM (inactive) | > 100 µM (inactive) | > 100 µM (inactive) | > 100 µM (inactive) | > 100 µM (inactive) | > 100 µM (inactive) | > 100 µM (inactive) | > 100 µM (inactive) | > 100 µM (inactive) | 
2 | CCOC(=O)CC[C@H](NC(=O)[C@H](N)Cc1ccc(N(CCCl)CCCl)cc1)C(=O)OCC | 19.6 µM (inactive) | 13.2 µM (inactive) | 10.4 µM (inactive) | 29.4 µM (inactive) | > 54.5 µM (inactive) | 2.68 µM (inactive) | 18.3 µM (inactive) | 9.55 µM (inactive) | 10.6 µM (inactive) | 20.7 µM (inactive) | 13.1 µM (inactive) | > 100 µM (inactive) | 0.386 µM (active) | 14.2 µM (inactive) | 27.6 µM (inactive) | > 42.6 µM (inactive) | 8.28 µM (inactive) | 29.2 µM (inactive) | 22.3 µM (inactive) | > 34.7 µM (inactive)
3 | COC(=O)C1=CO[C@@H](OC2OC(CO)C(O)C(O)C2O)[C@@H]2[C@H](C)[C@@H](O)[C@@H](O)[C@]12O (some centres undefined) | > 100 µM (inactive) | > 100 µM (inactive) | > 100 µM (inactive) | 34.8 µM (inactive) | > 100 µM (inactive) | > 100 µM (inactive) | > 100 µM (inactive) | > 100 µM (inactive) | > 100 µM (inactive) | > 100 µM (inactive) |  | > 100 µM (inactive) | > 100 µM (inactive) | > 100 µM (inactive) | > 100 µM (inactive) | > 100 µM (inactive) | > 100 µM (inactive) | > 100 µM (inactive) | > 100 µM (inactive) | > 100 µM (inactive)
4 | N#CCCN(CCCCN(CCC#N)C(=O)Nc1ccccc1)C(=O)Nc1ccccc1 | > 100 µM (inactive) | > 100 µM (inactive) | > 100 µM (inactive) | > 100 µM (inactive) |  | > 100 µM (inactive) | > 100 µM (inactive) | > 100 µM (inactive) | > 100 µM (inactive) | > 100 µM (inactive) | > 100 µM (inactive) | > 100 µM (inactive) | > 100 µM (inactive) | 24.4 µM (inactive) | > 100 µM (inactive) | > 100 µM (inactive) | > 100 µM (inactive) | > 100 µM (inactive) | > 100 µM (inactive) | > 100 µM (inactive)
5 | O=C(O)c1nc2cc(Cl)ccc2[nH]c1=O | > 100 µM (inactive) | > 100 µM (inactive) | > 100 µM (inactive) | > 100 µM (inactive) | > 100 µM (inactive) | > 100 µM (inactive) | > 100 µM (inactive) | > 100 µM (inactive) | > 100 µM (inactive) | > 100 µM (inactive) | > 100 µM (inactive) | > 100 µM (inactive) | > 100 µM (inactive) | > 100 µM (inactive) | > 100 µM (inactive) | > 100 µM (inactive) | > 100 µM (inactive) | > 100 µM (inactive) | > 100 µM (inactive) | > 100 µM (inactive)
6 | CCN1CC2=C(OC(N)=C(C#N)C2c2ccc(Cl)cc2)/C(=C/c2ccc(Cl)cc2)C1 (centres undefined) | 18 µM (inactive) | 42.4 µM (inactive) | 13.1 µM (inactive) | 16.1 µM (inactive) | 21 µM (inactive) | 26.9 µM (inactive) | 26.7 µM (inactive) | 12.1 µM (inactive) | 16.6 µM (inactive) | 52.4 µM (inactive) | 32.4 µM (inactive) | 16.5 µM (inactive) | 3.19 µM (inactive) | 12.3 µM (inactive) | 15 µM (inactive) | 39.5 µM (inactive) | 21.8 µM (inactive) | 30.1 µM (inactive) | 22.6 µM (inactive) | 31 µM (inactive)
7 | CCOP(=O)(OCC)/C(C#N)=C\c1cccc2ccccc12 | 23 µM (inactive) | 57.9 µM (inactive) | 39.5 µM (inactive) | 40.6 µM (inactive) | > 100 µM (inactive) | 35.5 µM (inactive) | > 58.5 µM (inactive) | > 71.4 µM (inactive) | > 45.7 µM (inactive) | 91.8 µM (inactive) | > 75.3 µM (inactive) | 44.5 µM (inactive) | 35.4 µM (inactive) | 31.6 µM (inactive) | > 57.1 µM (inactive) | 31.9 µM (inactive) | > 55.7 µM (inactive) | 60.1 µM (inactive) | 20.2 µM (inactive) | 32.4 µM (inactive)
8 | COc1ccc(-n2c(C)nc3ccc(NC4OC(COC(C)=O)C(OC(C)=O)C(OC(C)=O)C4OC(C)=O)cc3c2=O)cc1 (centres undefined) | 27.1 µM (inactive) | > 100 µM (inactive) | > 100 µM (inactive) | > 100 µM (inactive) | 55.1 µM (inactive) | 67 µM (inactive) | > 100 µM (inactive) | 24.8 µM (inactive) | 32.9 µM (inactive) | 18.6 µM (inactive) | > 100 µM (inactive) | > 100 µM (inactive) | 27.4 µM (inactive) | 27.8 µM (inactive) | > 100 µM (inactive) | > 100 µM (inactive) | > 100 µM (inactive) | > 100 µM (inactive) | 49.8 µM (inactive) | 32.7 µM (inactive)
9 | COc1ccc(/C=C/C(=O)c2cc(CN(C)C)c(O)c(CN(C)C)c2)cc1 | 21.8 µM (inactive) | 34.2 µM (inactive) | 16.2 µM (inactive) | 23.2 µM (inactive) | 40.6 µM (inactive) |  | > 10 µM (inactive) | 74 µM (inactive) | 29.8 µM (inactive) | 18.4 µM (inactive) |  | 19.7 µM (inactive) | 28.2 µM (inactive) | 31.7 µM (inactive) | 29.9 µM (inactive) | 49.8 µM (inactive) | 18 µM (inactive) | 26.8 µM (inactive) | 43.6 µM (inactive) | 40.1 µM (inactive)
10 | CC(=O)c1[nH]c(Nc2ccc(C)cc2)c(C(=S)Nc2ccccc2)c1N |  | 16.3 µM (inactive) | 15.6 µM (inactive) | 16.5 µM (inactive) | 17.3 µM (inactive) | 16.2 µM (inactive) | 18.6 µM (inactive) | 17.7 µM (inactive) | 18.1 µM (inactive) | 23.9 µM (inactive) | 17.5 µM (inactive) | 13.8 µM (inactive) | 30.1 µM (inactive) | 13.3 µM (inactive) | 16.8 µM (inactive) | 24.3 µM (inactive) | 15.2 µM (inactive) | 17.8 µM (inactive) | 20 µM (inactive) | 14.4 µM (inactive)
11 | COc1ccc(-c2ncnc(-c3ccc(OC)c(OC)c3)n2)cc1OC | > 10 µM (inactive) | > 100 µM (inactive) | > 100 µM (inactive) | > 100 µM (inactive) | > 100 µM (inactive) | > 100 µM (inactive) | > 100 µM (inactive) | > 100 µM (inactive) | > 100 µM (inactive) | > 100 µM (inactive) |  | > 100 µM (inactive) |  | 36.5 µM (inactive) |  | > 100 µM (inactive) | > 100 µM (inactive) | > 100 µM (inactive) | > 100 µM (inactive) | > 100 µM (inactive)
12 | Cc1c(/N=N/c2ccccc2)c(C)n(C2OC(CO)C(O)C(O)C2O)c(=S)c1C#N (centres undefined) | 40.2 µM (inactive) | 25.1 µM (inactive) | 12.3 µM (inactive) | 45.3 µM (inactive) | 27 µM (inactive) | 1.15 µM (inactive) | 21.8 µM (inactive) | 31.6 µM (inactive) |  | 42 µM (inactive) | 45.8 µM (inactive) | 34.9 µM (inactive) | 20.8 µM (inactive) | 33 µM (inactive) | 34.8 µM (inactive) |  | 21.6 µM (inactive) | 34.5 µM (inactive) | 1 µM (active) | 
13 | Cc1ccc(C)c2c1NC(=O)/C2=N\Nc1ccccc1[N+](=O)[O-] | > 100 µM (inactive) | > 100 µM (inactive) | > 100 µM (inactive) | > 100 µM (inactive) | > 100 µM (inactive) | > 100 µM (inactive) | > 100 µM (inactive) | 61.5 µM (inactive) |  | > 100 µM (inactive) | 38 µM (inactive) | > 100 µM (inactive) | > 100 µM (inactive) | > 100 µM (inactive) | > 100 µM (inactive) | > 100 µM (inactive) | > 100 µM (inactive) | > 100 µM (inactive) | 35.7 µM (inactive) | 
14 | Oc1cc(O)c2c(c1)O[C@H](c1cc(O)c(O)c(O)c1)[C@H](O)C2 [EPIGALLOCATECHIN] | 13.8 µM (inactive) | 63.7 µM (inactive) | 16.9 µM (inactive) | 18.7 µM (inactive) |  |  | > 10 µM (inactive) | 18.2 µM (inactive) | 16.1 µM (inactive) | 18.2 µM (inactive) | 14.7 µM (inactive) | > 100 µM (inactive) | 14.6 µM (inactive) | 15.2 µM (inactive) | > 100 µM (inactive) | > 10 µM (inactive) | 47 µM (inactive) | 30.5 µM (inactive) | 52 µM (inactive) | 26.4 µM (inactive)
